Reference: US8431514B2, “4-cyano-3-benzoylamino-N-phenyl-benzamides for use in pest control” (Syngenta Crop Protection LLC, priority 2009, dated 2013)

Assays:
Type in all cases: in vivo
[1] = test system: Heliothis virescens; test: Heliothis virescens (tobacco budworm) egg test on artificial diet; conditions: 96 h, application rate 200 ppm (concentration in well 18 ppm), eggs 0-24 h old on artificial diet, egg mortality, larval mortality and growth regulation after 4 days
Description: (§1) These Examples illustrate the insecticidal and acaricidal properties of the compounds of formula (I). The tests were performed as follows:
(§2) Cotton leaf discs were placed on agar in a 24-well microtiter plate and sprayed with test solutions at an application rate of 200 ppm. After drying, the leaf discs were infested with 5 L1 larvae. The samples were checked for mortality, feeding behavior, and growth regulation 3 days after treatment (DAT). The following compound gave at least 80% control of Spodoptera littoralis: A1, A2, A3, A4, A5, A6, A7, A8, A9, A10, A11, A12, A14, A15, A16, A17, A18, A19, A20. Heliothis Virescens (Tobacco Budworm): Eggs (0-24 h old) were placed in 24-well microtiter plate on artificial diet and treated with test solutions at an application rate of 200 ppm (concentration in well 18 ppm) by pipetting. After an incubation period of 4 days, samples were checked for egg mortality, larval mortality, and growth regulation. The following compound gave at least 80% control of Heliothis virescens: A1, A2, A3, A4, A5, A6, A7, A8, A9, A10, A11, A12, A14, A15, A16, A17, A18, A19, A20. Plutella Xylostella (Diamond Back Moth): 24-well microtiter plate (MTP) with artificial diet was treated with test solutions at an application rate of 200 ppm (concentration in well 18 ppm) by pipetting. After drying, the MTP's were infested with L2 larvae (7-12 per well). After an incubation period of 6 days, samples were checked for larval mortality and growth regulation. The following compound gave at least 80% control of Plutella xylostella: A1, A2, A3, A4, A5, A6, A7, A8, A9, A10, A11, A12, A13, A14, A15, A16, A17, A18, A19, A20. Diabrotica Balteata (Corn Root Worm): A 24-well microtiter plate (MTP) with artificial diet was treated with test solutions at an application rate of 200 ppm (concentration in well 18 ppm) by pipetting. After drying, the MTP's were infested with L2 larvae (6-10 per well). After an incubation period of 5 days, samples were checked for larval mortality and growth regulation. The following compound gave at least 80% control of Diabrotica balteata: A1, A2, A3, A4, A5, A6, A7, A8, A9, A10, A11, A12, A13, A14, A16, A17, A18, A19, A20. Thrips Tabaci (Onion Thrips): Sunflower leaf discs were placed on agar in a 24-well microtiter plate and sprayed with test solutions at an application rate of 200 ppm. After drying, the leaf discs were infested with an […] population of mixed ages. After an incubation period of 7 days, samples were checked for mortality. The following compounds gave at least 80% control of Thrips tabaci: A1, A2, A3, A4, A5, A6, A7, A8, A9, A10, A14, A16, A17, A18, A19, A20. Tetranychus Urticae (Two-Spotted Spider Mite): Bean leaf discs on agar in 24-well microtiter plates were sprayed with test solutions at an application rate of 200 ppm. After drying, the leaf discs are infested with mite populations of mixed ages. 8 days later, discs are checked for egg mortality, larval mortality, and adult mortality. The following compounds gave at least 80% control of Tetranychus urticae: A1, A2, A3, A4, A5, A6, A7, A8, A9, A10, A11, A12, A13, A14, A15, A16, A17, A19, A20.

[2] = test system: Diabrotica balteata; test: Diabrotica balteata (corn root worm) artificial diet test; conditions: 120 h, application rate 200 ppm (concentration in well 18 ppm), L2 larvae, larval mortality and growth regulation after 5 days
Description: as §1, §2

[3] = test system: Spodoptera littoralis; test: Spodoptera littoralis (Egyptian cotton leafworm) leaf disc spray test; conditions: foliar, 72 h, application rate 200 ppm, cotton leaf discs, 5 L1 larvae, mortality, feeding behavior and growth regulation 3 days after treatment
Description: as §1, §2

[4] = test system: Tetranychus urticae; test: Tetranychus urticae (two-spotted spider mite) bean leaf disc spray test; conditions: foliar, 192 h, application rate 200 ppm, bean leaf discs, mite populations of mixed ages, egg, larval and adult mortality 8 days later, read-out: control of Tetranychus urticae
Description: as §1, §2

[5] = test system: Thrips tabaci; test: Thrips tabaci (onion thrips) sunflower leaf disc spray test; conditions: foliar, 168 h, application rate 200 ppm, sunflower leaf discs, population of mixed ages, mortality after 7 days
Description: as §1, §2

[6] = test system: Plutella xylostella; test: Plutella xylostella (diamond back moth) artificial diet test; conditions: 144 h, application rate 200 ppm (concentration in well 18 ppm), L2 larvae, larval mortality and growth regulation after 6 days
Description: as §1, §2

Measured: pest or weed control at 200 ppm

Cc1cc(C#N)ccc1C(=O)Nc1cc(C(=O)Nc2c(Br)cc(C(F)(C(F)(F)F)C(F)(F)C(F)(F)F)cc2Br)ccc1C#N (stereo not shown) [A4, 4-cyano-3-(4′-cyano-2′-methylbenzoylamino)-N-[2,6-dibromo-4-(1,2,2,3,3,3-hexafluoro-1-trifluoromethylpropyl)phenyl]benzamide]
≥ 80%: all assays above

COCc1cc(C(F)(C(F)(F)F)C(F)(F)C(F)(F)F)cc(C)c1NC(=O)c1ccc(C#N)c(NC(=O)c2ccc(C#N)cc2C)c1 (stereo not shown) [A9, 4-cyano-3-(4′-cyano-2′-methyl-benzoylamino)-N-[4-(1,2,2,3,3,3-hexafluoro-1-trifluoromethylpropyl)-2-methoxymethyl-6-methylphenyl]benzamide]
≥ 80%: all assays above

CCc1cc(C(F)(C(F)(F)F)C(F)(F)C(F)(F)F)cc(Br)c1NC(=O)c1ccc(C#N)c(NC(=O)c2ccc(C#N)cc2C)c1 (stereo not shown) [A5, N-[2-bromo-6-ethyl-4-(1,2,2,3,3,3-hexafluoro-1-trifluoromethylpropyl)-phenyl]-4-cyano-3-(4′-cyano-2′-methylbenzoylamino)benzamide]
≥ 80%: all assays above

CCc1cc(C(O)(C(F)(F)F)C(F)(F)C(F)(F)F)cc(C)c1NC(=O)c1ccc(C#N)c(NC(=O)c2ccc(C#N)cc2C)c1 (stereo not shown) [A15, 4-cyano-3-(4′-cyano-2′-methyl-benzoylamino)-N-[2-ethyl-6-methyl-4-(2,2,3,3,3-pentafluoro-1-hydroxy-1-trifluoromethylpropyl)phenyl]benzamide]
≥ 80%: [1] | [3] | [4] | [6]

Cc1cc(C#N)ccc1C(=O)Nc1c(C#N)ccc(C(=O)Nc2c(Cl)cc(C(F)(C(F)(F)F)C(F)(F)C(F)(F)F)cc2Br)c1F (stereo not shown) [A6, N-[2-bromo-6-chloro-4-(1,2,2,3,3,3-hexafluoro-1-trifluoromethylpropyl)-phenyl]-4-cyano-3-(4′-cyano-2′-methylbenzoylamino)-2-fluorobenzamide]
≥ 80%: all assays above

Cc1cc(C#N)ccc1C(=O)Nc1cc(C(=O)Nc2c(Cl)cc(C(F)(C(F)(F)F)C(F)(F)F)cc2Br)ccc1C#N [A20, 4-cyano-3-(4′-cyano-2′-methylbenzoylamino)-N-[2-bromo-6-chloro-4-(1,2,2,2-tetrafluoro-1-trifluoromethylethyl)phenyl]benzamide]
≥ 80%: all assays above

Cc1cc(C#N)ccc1C(=O)Nc1cc(C(=O)Nc2c(Cl)cc(C(OC(=O)c3ccccc3)(C(F)(F)F)C(F)(F)F)cc2Br)ccc1C#N [A12, benzoic acid 1-{3-bromo-5-chloro-4-[4-cyano-3-(4-cyano-2-methyl-benzoylamino)benzoylamino]phenyl}-2,2,2-trifluoro-1-trifluoromethylethyl ester]
not listed: [5]
≥ 80%: all other assays above

Cc1cc(C#N)ccc1C(=O)Nc1cc(C(=O)Nc2c(Cl)cc(C(F)(C(F)(F)F)C(F)(F)C(F)(F)F)cc2Cl)ccc1C#N (stereo not shown) [A8, 4-cyano-3-(4′-cyano-2′-methylbenzoylamino)-N-[2,6-dichloro-4-(1,2,2,3,3,3-hexafluoro-1-trifluoromethylpropyl)phenyl]benzamide]
≥ 80%: all assays above

Cc1cc(C#N)ccc1C(=O)Nc1cc(C(=O)Nc2c(Br)cc(C(F)(C(F)(F)F)C(F)(F)F)cc2Br)ccc1C#N [A3, 4-cyano-3-(4′-cyano-2′-methylbenzoylamino)-N-[2,6-dibromo-4-(1,2,2,2-tetrafluoro-1-trifluoromethylethyl)phenyl]benzamide]
≥ 80%: all assays above

Cc1cc(C#N)ccc1C(=O)Nc1cc(C(=O)Nc2c(C)cc(C(F)(C(F)(F)F)C(F)(F)C(F)(F)F)cc2C)ccc1C#N (stereo not shown) [A16, 4-cyano-3-(4′-cyano-2′-methyl-benzoylamino)-N-[2,6-dimethyl-4-(1,2,2,3,3,3-hexafluoro-1-trifluoromethylpropyl)phenyl]benzamide]
≥ 80%: all assays above

Cc1cc(C#N)ccc1C(=O)Nc1cc(C(=O)Nc2c(Cl)cc(C(O)(C(F)(F)F)C(F)(F)F)cc2Br)ccc1C#N [A13, N-[2-bromo-6-chloro-4-[1,1,1,3,3,3-hexafluoropropan-2-ol)phenyl]-4-cyano-3-(4′-cyano-2′-methylbenzoylamino)benzamide]
≥ 80%: [2] | [4] | [6]

Cc1cc(C#N)ccc1C(=O)Nc1c(C#N)ccc(C(=O)Nc2c(Cl)cc(C(F)(C(F)(F)F)C(F)(F)C(F)(F)F)cc2Cl)c1F (stereo not shown) [A18, 4-cyano-3-(4′-cyano-2′-methylbenzoylamino)-N-[2,6-dichloro-4-(1,2,2,3,3,3-hexafluoro-1-trifluoromethylpropyl)phenyl]-2-fluorobenzamide]
not listed: [4]
≥ 80%: all other assays above

COc1cc(C(F)(C(F)(F)F)C(F)(F)C(F)(F)F)cc(C)c1NC(=O)c1ccc(C#N)c(NC(=O)c2ccc(C#N)cc2C)c1 (stereo not shown) [A11, 4-cyano-3-(4′-cyano-2′-methylbenzoylamino)-N-[2-methoxy-6-methyl-4-(1,2,2,3,3,3-hexafluoro-1-trifluoromethylpropyl)phenyl]benzamide]
not listed: [5]
≥ 80%: all other assays above
